Source: PubChem BioAssay (NCI)
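All cell lines were grown in 96-well plates and treated with compound for 48 hours. Abbreviation: GI50, concentration required for 50% inhibition of growth. At the TGI there is no net growth.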

What was measured:
Test in all cases: NCI tumour cell line growth inhibition, 48 h
SW-620 colon = test system: SW-620 colon
A498 renal = test system: A498 renal
OVCAR-3 ovarian = test system: OVCAR-3 ovarian
MOLT-4 leukemia = test system: MOLT-4 leukemia
OVCAR-5 ovarian = test system: OVCAR-5 ovarian
K-562 leukemia = test system: K-562 leukemia
SNB-19 CNS = test system: SNB-19 CNS
HCC-2998 colon = test system: HCC-2998 colon
M14 melanoma = test system: M14 melanoma
T-47D breast = test system: T-47D breast

`CCOc1ccc(NC(=O)CC2C(=O)Nc3ccccc3S2(=O)=O)cc1` (centres undefined) was tested, and the TGI (SW-620 colon) was > 100 µM, the TGI (A498 renal) was > 100 µM and the TGI (OVCAR-3 ovarian) was > 100 µM. For the same molecule, the TGI (MOLT-4 leukemia) was > 100 µM, the TGI (OVCAR-5 ovarian) was > 100 µM and the TGI (K-562 leukemia) was > 100 µM. The TGI (SNB-19 CNS) was > 100 µM and the TGI (HCC-2998 colon) was > 100 µM.
`c1ccc2c(c1)cc1n2CC2CN=NC12` (centres undefined) was tested, and the TGI (SW-620 colon) was > 100 µM, the TGI (A498 renal) was > 100 µM and the TGI (OVCAR-3 ovarian) was > 100 µM. For the same molecule, the TGI (MOLT-4 leukemia) was > 100 µM, the TGI (M14 melanoma) was > 100 µM and the TGI (OVCAR-5 ovarian) was > 100 µM. For the same molecule, the TGI (K-562 leukemia) was > 100 µM, the TGI (SNB-19 CNS) was > 100 µM and the TGI (HCC-2998 colon) was > 100 µM.
With `C=CCc1cc(OC)c2c(c1)C(OC)CC(c1ccc(OC)c(OC)c1)O2` (centres undefined) the TGI (SW-620 colon) was > 100 µM, the TGI (A498 renal) was > 100 µM and the TGI (OVCAR-3 ovarian) was > 100 µM. The TGI (MOLT-4 leukemia) was > 100 µM, the TGI (M14 melanoma) was > 100 µM and the TGI (OVCAR-5 ovarian) was > 100 µM. For the same molecule, the TGI (K-562 leukemia) was > 100 µM, the TGI (SNB-19 CNS) was > 100 µM and the TGI (HCC-2998 colon) was > 100 µM.
`CC(=O)NNc1nc(C)c(C(=O)NNC(=O)C(=O)Nc2ccc(Cl)cc2Cl)s1` showed a TGI (SW-620 colon) of 50.2 µM, a TGI (OVCAR-3 ovarian) of 50.5 µM and a TGI (MOLT-4 leukemia) of 57 µM. The TGI (M14 melanoma) was > 100 µM, the TGI (OVCAR-5 ovarian) was > 100 µM and the TGI (K-562 leukemia) was 50.2 µM. The TGI (SNB-19 CNS) was > 100 µM and the TGI (HCC-2998 colon) was > 100 µM.
`CC(=O)O[C@H]1CC[C@@]2(C)C(=CC[C@@H]3C2CC[C@]2(C)Nc4nc5ccccc5cc4CC32)C1` (some centres undefined) gave a TGI (SW-620 colon) of 7.2 µM, a TGI (A498 renal) of 18.9 µM and a TGI (OVCAR-3 ovarian) of 8.53 µM. It also gave a TGI (MOLT-4 leukemia) of 11.7 µM, a TGI (M14 melanoma) of 5.03 µM and a TGI (OVCAR-5 ovarian) of 26.9 µM. The TGI (K-562 leukemia) was 11.6 µM, the TGI (SNB-19 CNS) was 7.89 µM and the TGI (HCC-2998 colon) was 10.8 µM.
`C[C@]12CCC3[C@@H](CC[C@@H]4c5nonc5CC[C@]34C)C1CC[C@@H]2O` (some centres undefined) was tested, and the TGI (SW-620 colon) was > 100 µM, the TGI (A498 renal) was 62.7 µM and the TGI (OVCAR-3 ovarian) was 62.1 µM. For the same molecule, the TGI (MOLT-4 leukemia) was 55.1 µM, the TGI (M14 melanoma) was 53 µM and the TGI (OVCAR-5 ovarian) was > 100 µM. The TGI (K-562 leukemia) was > 100 µM, the TGI (SNB-19 CNS) was > 100 µM and the TGI (HCC-2998 colon) was > 100 µM.
In the case of `O=C(CC(Cl)=C(Cl)Cl)c1cccc(Cl)c1Cl`, the GI50 (T-47D breast) is reported as 42.5 µM, the TGI (T-47D breast) is reported as > 100 µM and the GI50 (SW-620 colon) is reported as 88.7 µM. The TGI (SW-620 colon) was > 100 µM, the GI50 (A498 renal) was > 100 µM and the TGI (A498 renal) was > 100 µM. The GI50 (MOLT-4 leukemia) was 24 µM, the TGI (MOLT-4 leukemia) was > 100 µM and the GI50 (M14 melanoma) was > 100 µM. The TGI (M14 melanoma) was > 100 µM, the GI50 (OVCAR-5 ovarian) was > 100 µM and the TGI (OVCAR-5 ovarian) was > 100 µM. For the same molecule, the GI50 (SNB-19 CNS) was > 100 µM and the TGI (SNB-19 CNS) was > 100 µM.
`CC(C)(C)C(C#N)(C#N)c1ccc(C(C#N)(C#N)C(C)(C)C)nn1` was tested, and the TGI (SW-620 colon) was > 100 µM, the TGI (OVCAR-3 ovarian) was > 100 µM and the TGI (MOLT-4 leukemia) was > 100 µM. For the same molecule, the TGI (M14 melanoma) was > 100 µM, the TGI (OVCAR-5 ovarian) was > 100 µM and the TGI (K-562 leukemia) was > 100 µM. For the same molecule, the TGI (SNB-19 CNS) was > 100 µM and the TGI (HCC-2998 colon) was > 100 µM.
